33 compounds from patent US10357481B2 (MERCK SHARP & DOHME CORP., priority 2015, dated 2019) can be followed below.

Structures are written as SMILES.

The target in this assay is T1, human PDE2A1 (Homo sapiens, UniProt O00408).
T1 construct: GST; purchased BPS Bioscience (San Diego, Calif.) 60020; host or cells: insect cells
Briefly: IMAP FP PDE selectivity panel, human PDE2A1. Type of assay: biochemical. The following applies: Lab B; read-out: Human PDE2 Ki (nM) Lab B. The procedure, abridged: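 Human PDE2A1 tested alongside PDE1–11 by IMAP fluorescence polarization at room temperature. Substrate was 50 nM FAM-cAMP plus 1000 nM cGMP, buffer pH 7.2 with MgCl2 and DTT, enzyme set for 20% conversion. Ten 3-fold compound dilutions; 60 min reaction, then IMAP binding solution, 1 h, parallel/perpendicular fluorescence read.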

T1 sequence (O00408 1-920 isoform O00408-2): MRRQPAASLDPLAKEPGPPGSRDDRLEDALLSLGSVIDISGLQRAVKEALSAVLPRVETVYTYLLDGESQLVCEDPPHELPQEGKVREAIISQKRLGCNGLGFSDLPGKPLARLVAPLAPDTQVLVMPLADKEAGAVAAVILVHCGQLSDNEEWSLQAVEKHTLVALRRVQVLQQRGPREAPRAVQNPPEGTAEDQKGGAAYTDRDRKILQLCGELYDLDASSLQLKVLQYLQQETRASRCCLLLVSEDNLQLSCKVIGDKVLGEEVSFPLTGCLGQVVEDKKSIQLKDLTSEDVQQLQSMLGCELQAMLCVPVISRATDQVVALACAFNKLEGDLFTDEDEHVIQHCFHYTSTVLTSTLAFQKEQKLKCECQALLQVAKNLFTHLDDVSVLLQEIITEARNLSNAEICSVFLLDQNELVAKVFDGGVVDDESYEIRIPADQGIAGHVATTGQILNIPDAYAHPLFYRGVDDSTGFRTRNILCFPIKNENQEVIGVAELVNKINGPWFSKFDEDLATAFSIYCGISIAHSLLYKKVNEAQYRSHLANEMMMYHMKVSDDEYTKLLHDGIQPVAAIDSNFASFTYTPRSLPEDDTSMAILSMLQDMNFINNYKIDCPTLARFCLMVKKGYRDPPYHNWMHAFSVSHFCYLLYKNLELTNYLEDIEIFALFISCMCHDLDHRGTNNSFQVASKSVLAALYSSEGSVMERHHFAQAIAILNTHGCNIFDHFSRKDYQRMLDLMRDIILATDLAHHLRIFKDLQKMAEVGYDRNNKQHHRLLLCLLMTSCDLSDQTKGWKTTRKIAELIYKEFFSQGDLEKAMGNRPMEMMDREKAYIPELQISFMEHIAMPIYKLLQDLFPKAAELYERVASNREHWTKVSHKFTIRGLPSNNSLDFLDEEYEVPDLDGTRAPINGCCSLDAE

With `Cc1cc(N[C@H](C)c2ccc(C3CC3)c(F)c2)n2ncnc2n1` [Example 14, N-[(1R)-1-(4-Cyclopropyl-3-fluorophenyl)ethyl]-5-methyl[1,2,4]triazolo[1,5-a] pyrimidin-7-amine], the Ki is 48 nM.
As for `Cc1cc(N[C@H](C)c2ccc(C3(C)CC3)cc2)n2ncnc2n1` [Example 15, 5-Methyl-N-{(1R)-1-[4-(1-methylcyclopropyl)phenyl]ethyl} [1,2,4]triazolo[1,5-a]pyrimidin-7-amine], the Ki was 173 nM.
`CC[C@@H](Nc1cc(C)nc2ncnn12)c1ccc(C(F)(F)F)c(F)c1` [Example 16, N-{(1R)-1-[3-Fluoro-4-(trifluoromethyl)phenyl]propyl}-5-methyl[1,2,4]triazolo[1,5-a] pyrimidin-7-amine]: the Ki came out at 61 nM.
The figure for `CC[C@@H](Nc1cc(C)nc2ncnn12)c1ccc(SC(F)(F)F)cc1` [Example 17, 5-Methyl-N-[(1R)-1-{4-[(trifluoromethyl)sulfanyl]phenyl}propyl][1,2,4]triazolo[1,5-a] pyrimidin-7-amine] is 15 nM; for `CC[C@@H](Nc1cc(C)nc2ncnn12)c1ccc(SC(F)(F)F)c(F)c1` [Example 18, N-[(1R)-1-{3-Fluoro-4-[(trifluoromethyl)sulfanyl]phenyl}propyl]-5-methyl[1,2,4]triazolo[1,5-a]pyrimidin-7-amine] it is 15 nM; for `Cc1cc(N[C@@H](c2ccc(C(F)(F)F)cc2)C(C)C)n2ncnc2n1` [Example 19, 5-Methyl-N-{(1R)-2-methyl-1-[4-(trifluoromethyl)phenyl]propyl} [1,2,4]triazolo[1,5-a]pyrimidin-7-amine] it is 36 nM.
Turning to `Cc1cc(N[C@@H](c2ccc(C(F)(F)F)c(F)c2)C(C)C)n2ncnc2n1` [Example 20, N-{(1R)-1-[3-Fluoro-4-(trifluoromethyl)phenyl]-2-methylpropyl}-5-methyl[1,2,4]triazolo[1,5-a] pyrimidin-7-amine], the Ki amounted to 28 nM.
For the compound `Cc1cc(N[C@@H](c2ccc(SC(F)(F)F)c(F)c2)C(C)C)n2ncnc2n1` [Example 21, N-[(1R)-1-{3-Fluoro-4-[(trifluoromethyl)sulfanyl]phenyl}-2-methylpropyl]-5-methyl[1,2,4]triazolo[1,5-a] pyrimidin-7-amine], the Ki was determined as 4 nM.
With `Cc1cc(N[C@@H](c2ccc(S(F)(F)(F)(F)F)cc2)C(C)C)n2ncnc2n1` [Example 22, 5-Methyl-N-{(1R)-2-methyl-1-[4-(pentafluoro-λ^6-sulfanyl)phenyl]propyl}[1,2,4]triazolo[1,5-a] pyrimidin-7-amine], the inhibition constant (Ki) was 13 nM.
On to `Cc1cc(N[C@@H](c2ccc(OC(F)F)cc2)C(C)C)n2ncnc2n1` [Example 23, N-{(1R)-1-[4-(Difluoromethoxy)phenyl]-2-methylpropyl}-5-methyl [1,2,4]triazolo[1,5-a]pyrimidin-7-amine], for which the Ki came to 45 nM.
`Cc1cc(N[C@@H](c2ccc(C3(C)CC3)cc2)C(C)C)n2ncnc2n1` [Example 24, 5-Methyl-N-{(1R)-2-methyl-1-[4-(1-methyl-cyclopropyl)phenyl]propyl} [1,2,4]triazolo[1,5-a]pyrimidin-7-amine]: the Ki came to 26 nM.
Consider `Cc1cc(N[C@@H](c2ccc(C3CC3)cc2F)C(C)C)n2ncnc2n1` [Example 25, N-[(1R)-1-(4-Cyclopropyl-2-fluorophenyl)-2-methylpropyl]-5-methyl[1,2,4]triazolo[1,5-a] pyrimidin-7-amine], for which the Ki came to 9.9 nM.
For the compound `Cc1cc(N[C@@H](c2ccc(C(F)(F)F)cc2)C(C)(C)C)n2ncnc2n1` [Example 26, N-{(1R)-2,2-Dimethyl-1-[4-(trifluoromethyl)phenyl]propyl}-5-methyl[1,2,4]triazolo[1,5-a] pyrimidin-7-amine], the Ki came out at 11 nM.
Consider `Cc1cc(N[C@@H](c2ccc(C(F)(F)F)c(F)c2)C(C)(C)C)n2ncnc2n1` [Example 27, N-{(1R)-1-[3-Fluoro-4-(trifluoromethyl)phenyl]-2,2-dimethylpropyl}-5-methyl[1,2,4]triazolo[1,5-a] pyrimidin-7-amine], for which the Ki turned out to be 10 nM.
The same measure for `Cc1cc(N[C@@H](c2ccc(OC(F)(F)F)c(F)c2)C(C)(C)C)n2ncnc2n1` [Example 28, N-{(1R)-1-[3-Fluoro-4-(trifluoromethoxy)phenyl]-2,2-dimethylpropyl}-5-methyl[1,2,4]triazolo[1,5-a] pyrimidin-7-amine]: 7.1 nM; for `Cc1cc(N[C@@H](c2ccc(SC(F)(F)F)cc2)C(C)(C)C)n2ncnc2n1` [Example 29, N-[(1R)-2,2-Dimethyl-1-{4-[(trifluoromethyl)sulfanyl]phenyl}propyl]-5-methyl[1,2,4]triazolo[1,5-a] pyrimidin-7-amine]: 2.1 nM.
As to `Cc1cc(N[C@@H](c2ccc(C3CC3)cc2)C(C)(C)C)n2ncnc2n1` [Example 30, N-[(1R)-1-(4-Cyclopropyl-phenyl)-2,2-dimethylpropyl]-5-methyl[1,2,4]triazolo[1,5-a] pyrimidin-7-amine], the Ki is 4.4 nM.
With `Cc1cc(N[C@@H](c2ccc(C3CC3)c(F)c2)C(C)(C)C)n2ncnc2n1` [Example 31, N-[(1R)-1-(4-Cyclopropyl-3-fluorophenyl)-2,2-dimethylpropyl]-5-methyl[1,2,4]triazolo[1,5-a] pyrimidin-7-amine], the Ki was determined as 4.9 nM.
The same measure for `Cc1cc(N[C@@H](c2ccc(OC(F)(F)F)cc2)C(C)(C)C)n2ncnc2n1` [Example 32, N-{(1R)-2,2-Dimethyl-1-[4-(trifluoromethoxy)phenyl]propyl}-5-methyl[1,2,4]triazolo[1,5-a] pyrimidin-7-amine]: 6.6 nM.
As for `Cc1cc(N[C@@H](c2ccc(OC(F)F)cc2)C(C)(C)C)n2ncnc2n1` [Example 33, N-{(1R)-1-[4-(Difluoromethoxy)phenyl]-2,2-dimethylpropyl}-5-methyl[1,2,4]triazolo[1,5-a] pyrimidin-7-amine], the Ki worked out at 17 nM.
As to `Cc1cc(N[C@@H](c2ccc(C(F)(F)F)cc2F)C(C)(C)C)n2ncnc2n1` [Example 34, N-{(1R)-1-[2-Fluoro-4-(trifluoromethyl)phenyl]-2,2-dimethylpropyl}-5-methyl[1,2,4]triazolo[1,5-a] pyrimidin-7-amine], the Ki turned out to be 15 nM.
On to `Cc1cc(N[C@@H](c2ccc(CC(F)(F)F)cc2)C(C)(C)C)n2ncnc2n1` [Example 35, N-{(1R)-2,2-Dimethyl-1-[4-(2,2,2-trifluoroethyl)phenyl]propyl}-5-methyl[1,2,4]triazolo[1,5-a] pyrimidin-7-amine], for which the Ki came to 7.8 nM.
The figure for `Cc1cc(N[C@@H](c2ccc(S(F)(F)(F)(F)F)cc2)C(C)(C)C)n2ncnc2n1` [Example 36, N-{(1R)-2,2-Dimethyl-1-[4-(pentafluoro-λ^6-sulfanyl)phenyl]propyl}-5-methyl [1,2,4]triazolo[1,5-a]pyrimidin-7-amine] is 6.3 nM.
Take `Cc1cc(N[C@@H](c2ccc(S(F)(F)(F)(F)F)cc2)C2CC2)n2ncnc2n1` [Example 37, N-{(1R)-Cyclopropyl[4-(pentafluoro-λ^6-sulfanyl)phenyl]methyl}-5-methyl[1,2,4]triazolo[1,5-a] pyrimidin-7-amine]: the Ki worked out at 22 nM.
Regarding `Cc1cc(N[C@@H](c2ccc(C3CC3)c(F)c2)C2CC2)n2ncnc2n1` [Example 38, N-[(R)-Cyclopropyl(4-cyclopropyl-3-fluorophenyl)methyl]-5-methyl[1,2,4]triazolo[1,5-a] pyrimidin-7-amine], the Ki worked out at 20 nM.
Regarding `Cc1cc(N[C@@H](c2ccc(C(F)(F)F)c(F)c2)C2CC2)n2ncnc2n1` [Example 39, N-{(R)-Cyclopropyl[3-fluoro-4-(trifluoromethyl)phenyl]methyl}-5-methyl[1,2,4]triazolo[1,5-a] pyrimidin-7-amine], the Ki turned out to be 49 nM.
As for `Cc1cc(N[C@@H](c2ccc(SC(F)(F)F)cc2)C2CC2)n2ncnc2n1` [Example 40, N-[(R)-Cyclopropyl{4-[(trifluoromethyl)sulfanyl]phenyl}methyl]-5-methyl[1,2,4]triazolo[1,5-a] pyrimidin-7-amine], the Ki amounted to 14 nM.
The same measure for `Cc1cc(N[C@@H](c2ccc(SC(F)(F)F)c(F)c2)C2CC2)n2ncnc2n1` [Example 41, N-[(R)-Cyclopropyl{3-fluoro-4-[(trifluoromethyl)sulfanyl]phenyl}methyl]-5-methyl[1,2,4]triazolo[1,5-a] pyrimidin-7-amine]: 19 nM.
The figure for `Cc1cc(N[C@@H](c2ccc(C3CC3)cc2)C2CC2)n2ncnc2n1` [Example 42, N-[(R)-Cyclopropyl(4-cyclopropylphenyl)methyl]-5-methyl[1,2,4]triazolo[1,5-a] pyrimidin-7-amine] is 20 nM.
In the case of `Cc1cc(N[C@@H](c2ccc(C(F)(F)F)c(F)c2)C2(C)CC2)n2ncnc2n1` [Example 43, N-[(R)-[3-Fluoro-4-(trifluoromethyl)phenyl](1-methylcyclopropyl)methyl]-5-methyl[1,2,4]triazolo[1,5-a] pyrimidin-7-amine], the Ki amounted to 23 nM.
The same measure for `Cc1cc(N[C@@H](c2ccc(S(F)(F)(F)(F)F)cc2)C2(C)CC2)n2ncnc2n1` [Example 44, 5-Methyl-N-{(R)-(1-methylcyclopropyl)[4-(pentafluoro-λ^6-sulfanyl)phenyl]methyl} [1,2,4]triazolo[1,5-a]pyrimidin-7-amine]: 18 nM; for `Cc1cc(NC(C)(C)c2ccc(OC(F)(F)F)c(F)c2)n2ncnc2n1` [Example 45, N-{1-[3-Fluoro-4-(trifluoromethoxy)phenyl]-1-methylethyl}-5-methyl[1,2,4]triazolo[1,5-a]pyrimidin-7-amine]: 207 nM; for `Cc1cc(NC(C)(C)c2ccc(C(F)(F)F)c(F)c2)n2ncnc2n1` [Example 46, N-{1-[3-Fluoro-4-(trifluoromethyl)phenyl]-1-methylethyl}-5-methyl [1,2,4]triazolo[1,5-a]pyrimidin-7-amine]: 48 nM.

Broadly, the Ki is the equilibrium dissociation constant of an inhibitor or competing ligand from its target.
